Values of other authors as cited in patent US20050019746A1, “Apoptosis-related kinase/GPCRs” (EiRx Therapeutics Limited, priority 2003, published 2005).

Key:
[1] = test system: JAK3-positive leukemia cell lines DAUDI, RAMOS, LC1;19, NALM-6, MOLT-3, HL-60; details: concentration-dependent, not JAK3-negative lines (Sudbeck et al); cited from earlier work
glioblastoma cell = details: Narla et al; cited from earlier work
[2] = test system: PDK1 regulatory sites in S6K1 and Akt; details: Ballif et al; cited from earlier work

Structure (SMILES) | clonogenic growth [1] | glioblastoma cell adhesion and migration (glioblastoma cell) | phosphorylation of PDK1 regulatory sites [2]
COc1cc2ncnc(Nc3ccc(O)cc3)c2cc1OC [WHI-P131] | inhibited the clonogenic growth | potent inhibitors of glioblastoma cell adhesion and migration | 
Cc1ccc(S(=O)(=O)N[C@@H](Cc2ccccc2)C(=O)CCl)cc1 [TPCK, n-alpha-tosyl-1-phenylalanyl chloromethyl ketone] |  |  | prevented phosphorylation of the PDK1 regulatory sites in S6K1 and Akt
